Here are results for nine compounds from paper PMC10653776, “New dammarane-type triterpenoids from hydrolyzate of total Gynostemma pentaphyllum saponins with protein tyrosine phosphatase 1B inhibitory activity” (Journal of Enzyme Inhibition and Medicinal Chemistry, 2023).

Experiment [1] addresses T1, PTP1B (Homo sapiens, UniProt P18031).
T1 sequence (P18031 1-435): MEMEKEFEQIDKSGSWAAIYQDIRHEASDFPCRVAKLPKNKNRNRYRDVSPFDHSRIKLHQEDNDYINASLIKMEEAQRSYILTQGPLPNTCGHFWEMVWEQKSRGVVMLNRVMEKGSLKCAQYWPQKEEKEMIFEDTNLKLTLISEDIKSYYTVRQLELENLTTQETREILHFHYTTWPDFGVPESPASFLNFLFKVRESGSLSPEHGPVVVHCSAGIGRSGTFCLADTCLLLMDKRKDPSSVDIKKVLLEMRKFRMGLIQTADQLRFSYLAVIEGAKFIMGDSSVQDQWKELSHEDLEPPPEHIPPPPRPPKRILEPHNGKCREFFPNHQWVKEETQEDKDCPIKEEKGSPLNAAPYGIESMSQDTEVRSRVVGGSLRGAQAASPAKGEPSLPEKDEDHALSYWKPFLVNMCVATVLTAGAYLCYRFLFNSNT
As to the kind of experiment: PTP1B inhibition assay (pNPP colorimetric method). The settings on record: for IC50: pNPP substrate, 37 °C 30 min, means ± SD of three replications; for PTP1B inhibitory activity (in words): pNPP method, compared with positive control NaVO4. Set-up: purchased Abcam (Shanghai) Trading Co., Ltd. ab51277. The experiment is classed as biochemical. Here is the method:
In the separation process, the column chromatography as performed by silica-gel (100–200 and 300–400 mesh, Qingdao Marine Chemical Co., Qingdao, China), and Sephadex LH-20 (GE Healthcare, Marlborough, MA). The TLC detection was carried by heating a silica gel plate (Qingdao Marine Chemical Co., Qingdao, China) spayed with 10% H2SO4 in ethanol. The 1D and 2D NMR spectra were recorded on a Varian INOVA AS 400 instrument (Agilent, Santa Clara, USA) with TMS as the internal standard. The chemical shift was shown in ppm while coupling constant J in Hz. Deuterated solvent ([…]) was purchased from Sigma Aldrich for NMR analysis. HR-ESI-MS data were collected by a UPLC–Q/TOF-MS system including a 1290 Infinity II UPLC system (Agilent, USA) and an Agilent 6545 Q/TOF-MS system (Agilent, MA, USA). Optical rotations were measured by a JASCO P-1020 polarimeter (Kyoto, Japan). The single crystal X-ray diffraction data were obtained by a SuperNova, Dual, Cu at zero, AtlasS2 diffractometer (Rigaku, Japan). Besides, other analytical grade chemical solvent was obtained from Jinhuada Chemical Co., ltd. Guangzhou, P.R. China. Recombinant human PTP1B protein (ab51277) was purchased from Abcam (Shanghai) Trading Co., Ltd. All chemical reagents used in the enzymatic assays were produced by Laibo Chemicals Industries, Ltd.
The enzymatic assays of protein tyrosine phosphatase 1B (PTP1B) were referred. The PTP1B inhibitory activities of test compounds were examined in 96-well plates using the colorimetric method. […] The reaction system was 100 μL: MOPS (25 mM, pH = 7.0), DTT (2 mM), EDTA (1 mM, pH = 7.0), NaCl (0.1 M), PTP 1B (25 nM), and disodium-4-nitrophenyl phosphate (pNPP, 2 mM), and the enzyme-catalysed reaction was terminated by the addition of 1.0 M NaOH after incubation at 37 °C for 30 min. The inhibition efficiency of the compounds on the enzymatic activity of PTP1B was assayed by detecting the amount of the hydrolysed product, p-nitrophenol (p-NP) at 405 nm using a microplate reader. The PTP1B inhibition activity was expressed as inhibition (%) and was calculated as Equation (1): (1) Inhibition (%)=(1−ΔAsample/ΔAcontrol)×100%

Experiment [2] addresses T1, PTP1B. As to the kind of experiment: PTP1B inhibition kinetic assay (Lineweaver-Burk and Dixon plots). The settings on record: for Ki: Dixon plot method, means ± SD of three replications; for type of inhibition against PTP1B: Lineweaver-Burk double reciprocal plot. The format is biochemical. Here is the method: The kinetic behaviour of the active compounds against PTP1B and the corresponding inhibition constants (Ki values) were investigated using Lineweaver-Burk double reciprocal plots and Dixon plots. Different concentrations of p-NPP substrates (1, 2, 5 and 10 mM) were subjected to enzymatic reactions with various concentrations of active compounds (0, 0.5, 1.0 and 5.0 μM for 18) and 100 nM PTP1B in 96-well plates. The absorbance of the reaction mixture was recorded every 3 min by a plate reader. The enzymatic velocity of the enzyme reaction was calculated based on the time-Δabs plot. All assays were performed in triplicate.

Compound `CC(C)=C1CC([C@H]2CC[C@]3(C)[C@@H]2CC[C@@H]2C4=C(CC[C@]23C)C(C)(C)[C@@H]2CC[C@H]4O2)=CC1=O` [Compound 7, Gypensapogenin B] yielded an IC50 on PTP1B [1] of 29.4 ± 2.48 µM.
With `CC(C)=CCC[C@@](O)(C(=O)O)[C@H]1CC[C@]2(C)[C@@H]1CCC1[C@@]3(C)CC[C@H](O)C(C)(C)C3CC[C@]12C` (stereo partly shown) [Compound 3, Gypensapogenin III], on PTP1B [2], the Ki stood at 1.16 ± 0.47 µM and the “type of inhibition against PTP1B” value is on record as “competitive inhibitors”. For the same compound, on PTP1B [1], the “PTP1B inhibitory activity (in words)” value was “more inhibitory activity against PTP1B than the positive control” and the IC50 stood at 2.34 ± 0.24 µM.
As to `CC(C)=C1CC([C@H]2CC[C@]3(C)[C@@H]2CCC2[C@@]4(C)CC[C@H](O)C(C)(C)C4CC[C@]23C)=CC1=O` (stereo partly shown) [Compound 2, Gypensapogenin II], at PTP1B [1], the “PTP1B inhibitory activity (in words)” value was “more inhibitory activity against PTP1B than the positive control” and the IC50 was 10.5 ± 1.07 µM.
`CC(C)=C1CC=C([C@H]2CC[C@]3(C)[C@@H]2CC[C@@H]2C4=C(CC[C@]23C)C(C)(C)[C@@H]2CC[C@H]4O2)C1=O` [Compound 6, Gypensapogenin A] registered an IC50 on PTP1B [1] of 19.6 ± 1.48 µM.
The same measure, in the same setting: in the case of `CC1(C)CCC=C(C(=O)C2CCC3(C)C2CCC2C4=C(CCC23C)C(C)(C)C2CCC4O2)O1` (stereo not shown) [Compound 1, Gypensapogenin I] it was 20.3 ± 2.49 µM.
Regarding `CC(C)=C[C@H]1C=C([C@H]2CC[C@]3(C)[C@@H]2CC[C@@H]2[C@@]4(C)CC[C@H](O)C(C)(C)[C@@H]4CC[C@]23C)C(=O)O1` [Compound 9, Gypensapogenin D], on PTP1B [2], the Ki is 5.58 ± 0.7 µM and the “type of inhibition against PTP1B” value was “competitive inhibitors”. Besides, on PTP1B [1], the “PTP1B inhibitory activity (in words)” value is given as “more inhibitory activity against PTP1B than the positive control” and it took 7.77 ± 0.85 µM to reach half-maximal inhibition (IC50).
`CC(C)(O)CC(=O)CC(C(=O)O)[C@H]1CC[C@]2(C)[C@@H]1CCC1[C@@]3(C)CC[C@H](O)C(C)(C)C3CC[C@]12C` (stereo partly shown) [Compound 4, Gypensapogenin IV]: on PTP1B [2], the inhibition constant Ki was 2.44 ± 0.09 µM and the “type of inhibition against PTP1B” value is “competitive inhibitors”. Also, at PTP1B [1], the “PTP1B inhibitory activity (in words)” value is listed as “more inhibitory activity against PTP1B than the positive control” and it took 4.26 ± 0.42 µM to reach half-maximal inhibition (IC50).
Turning to `CC(C)=C1CC=C([C@H]2CC[C@]3(C)[C@@H]2CC[C@@H]2[C@@]4(C)CC[C@H](O)C(C)(C)[C@@H]4CC[C@]23C)C1=O` [Compound 8, Gypensapogenin C], the IC50 against PTP1B [1] was 24.6 ± 2.28 µM.
Still for that read-out and setting: in the case of `CC(C)=CC(=O)CC(C(=O)O)[C@H]1CC[C@]2(C)[C@@H]1CCC1[C@@]3(C)CC[C@H](O)C(C)(C)C3CC[C@]12C` (stereo partly shown) [Compound 5, Gypensapogenin V] it was 33.9 ± 0.83 µM.

What is called IC50 is the point on the concentration scale where inhibition reaches its midpoint. Higher therefore signals lower potency. By Ki is commonly meant a measure of affinity in units of concentration, obtained from inhibition or displacement. Read a high Ki as weaker binding.
